Values after ≈ are worked out from the molar mass of the structure shown. Active and inactive are the calls of the source. No cut-off for these calls is given here.
What was measured:
[1] = test system: Escherichia coli; assay: Antibacterial activity against Escherichia coli after 24 hrs by broth microdilution method; format: functional
[2] = test system: Klebsiella pneumoniae; assay: Antibacterial activity against Klebsiella pneumoniae after 24 hrs by broth microdilution method; format: functional
[3] = test system: Staphylococcus aureus; assay: Antibacterial activity against Staphylococcus aureus after 24 hrs by broth microdilution method; format: functional
[4] = test system: Bacillus subtilis; assay: Antibacterial activity against Bacillus subtilis after 24 hrs by broth microdilution method; format: functional
[5] = test system: Bacillus subtilis; assay: Antibacterial activity against Bacillus subtilis assessed as growth inhibition at 5 ug/ml after 10 hrs; format: functional, organism-based
[6] = test system: Bacillus subtilis; assay: Antibacterial activity against Bacillus subtilis assessed as growth inhibition at 10 to 80 ug/ml measured up to 26 hrs relative to control; format: functional
[7] = test system: Bacillus subtilis; assay: Induction of morphological changes in Bacillus subtilis assessed as cell disruption at 10 to 40 ug/ml after 24 hrs by SEM analysis; format: functional, organism-based
[8] = test system: Bacillus subtilis; assay: Induction of morphological changes in Bacillus subtilis assessed as slender shape at 10 to 40 ug/ml after 24 hrs by SEM analysis; format: functional, organism-based
[9] = test system: Bacillus subtilis; assay: Induction of morphological changes in Bacillus subtilis assessed as wrinkled surface at 10 to 40 ug/ml after 24 hrs by SEM analysis; format: functional, organism-based
[10] = test system: Bacillus subtilis; assay: Induction of morphological changes in Bacillus subtilis assessed as irregular size at 10 to 40 ug/ml after 24 hrs by SEM analysis; format: functional, organism-based
[11] = test system: Bacillus subtilis; assay: Antibacterial activity against Bacillus subtilis assessed as growth inhibition at 5 to 80 ug/ml after 2 to 26 hrs relative to control; format: functional

C/C(=C\[C@@H](O)C[C@@H](C)[C@H]1CC[C@@]2(C)[C@@H]3CC[C@H]4C(C)(C)[C@@H](O)CC[C@@]45C[C@@]35CC[C@]12C)C(=O)O
MIC [1]: > 40 µg/mL
MIC [2]: > 40 µg/mL
MIC [3]: > 40 µg/mL
MIC [4]: 20 µg/mL (≈ 42.3 µM)

C/C(=C\CC[C@@H](C)[C@H]1CC[C@@]2(C)[C@@H]3CC[C@H]4C(C)(C)[C@@H](O)CC[C@@]45C[C@@]35CC[C@]12C)C(=O)O [MANGIFEROLIC ACID]
MIC [1]: > 40 µg/mL
MIC [2]: > 40 µg/mL
MIC [3]: > 40 µg/mL
MIC [4]: > 40 µg/mL

C/C(=C\CC[C@@H](C)[C@H]1CC[C@@]2(C)[C@@H]3CC[C@H]4C(C)(C)[C@H](O)CC[C@@]45C[C@@]35CC[C@]12C)C(=O)O [ISOMANGIFEROLIC ACID]
MIC [1]: > 40 µg/mL
MIC [2]: > 40 µg/mL
MIC [3]: > 40 µg/mL
MIC [4]: > 40 µg/mL

C/C(=C\CC[C@@H](C)[C@H]1C[C@@H](O)[C@@]2(C)[C@@H]3CC[C@H]4C(C)(C)[C@@H](O)CC[C@@]45C[C@@]35CC[C@]12C)C(=O)O
growth inhibition (GI) [5]: Active
growth inhibition (GI) [6]: 100%
MIC [1]: > 40 µg/mL
MIC [2]: > 40 µg/mL
MIC [3]: 20 µg/mL (≈ 42.3 µM)
MIC [4]: 10 µg/mL (≈ 21.2 µM)

CN[C@@H]1[C@H](O[C@H]2[C@H](O[C@H]3[C@H](O)[C@@H](O)[C@H](N=C(N)N)[C@@H](O)[C@@H]3N=C(N)N)O[C@@H](C)[C@]2(O)C=O)O[C@@H](CO)[C@H](O)[C@H]1O [STREPTOMYCIN]
MIC [1]: 5 µg/mL (≈ 8.6 µM)
MIC [2]: 5 µg/mL (≈ 8.6 µM)

CO[C@@H]1CC[C@]23C[C@]24CC[C@]2(C)[C@@H]([C@H](C)CC/C=C(\C)C(=O)O)C[C@@H](O)[C@@]2(C)[C@@H]4CC[C@H]3C1(C)C
MIC [1]: > 40 µg/mL
MIC [2]: > 40 µg/mL
MIC [3]: > 40 µg/mL
MIC [4]: 20 µg/mL (≈ 41.1 µM)

C/C(=C\[C@@H](O)C[C@@H](C)[C@H]1CC[C@@]2(C)C3=C(CC[C@]12C)[C@@]1(C)CCC(=O)C(C)(C)[C@@H]1CC3)C(=O)O
MIC [1]: > 40 µg/mL
MIC [2]: > 40 µg/mL
MIC [3]: 40 µg/mL (≈ 85 µM)
MIC [4]: 10 µg/mL (≈ 21.2 µM)

CO[C@@H]1CC[C@]23C[C@]24CC[C@]2(C)[C@@H]([C@H](C)CC/C=C(\C)C(=O)O)[C@@H](O)[C@@H](O)[C@@]2(C)[C@@H]4CC[C@H]3C1(C)C
MIC [1]: > 40 µg/mL
MIC [2]: > 40 µg/mL
MIC [3]: 20 µg/mL (≈ 39.8 µM)
MIC [4]: 20 µg/mL (≈ 39.8 µM)

C=C1CC[C@@](C)([C@H](C)CC(=O)C[C@@H](C)C(=O)O)[C@@]12CCC1=C2CC[C@H]2C(C)(C)C(=O)CC[C@]12C
MIC [1]: > 40 µg/mL
MIC [2]: > 40 µg/mL
MIC [3]: 40 µg/mL (≈ 85.3 µM)
MIC [4]: 10 µg/mL (≈ 21.3 µM)

C=C1CC[C@@](C)([C@H](C)CC(=O)[C@H]2CC(CCC=C(C)C)=CC[C@]2(C)C(=O)O)[C@@]12CCC1=C2CC[C@H]2C(C)(C)[C@@H](O)CC[C@]12C
MIC [1]: > 40 µg/mL
MIC [2]: > 40 µg/mL
MIC [3]: > 40 µg/mL
MIC [4]: > 40 µg/mL

CC1(C)S[C@@H]2[C@H](NC(=O)[C@H](N)c3ccccc3)C(=O)N2[C@H]1C(=O)O [AMPICILLIN]
MIC [1]: > 40 µg/mL
MIC [2]: > 40 µg/mL
MIC [3]: 40 µg/mL (≈ 114 µM)
MIC [4]: > 40 µg/mL

C[C@H](CC[C@@H](O)C(C)(C)O)[C@H]1CC[C@@]2(C)[C@@H]3CC[C@H]4C(C)(C)C(=O)CC[C@@]45C[C@@]35CC[C@]12C
MIC [1]: > 40 µg/mL
MIC [2]: > 40 µg/mL
MIC [3]: > 40 µg/mL
MIC [4]: > 40 µg/mL

C[C@H](CC[C@H](O)[C@](C)(O)CO)[C@H]1CC[C@@]2(C)[C@@H]3CC[C@H]4C(C)(C)[C@@H](O)CC[C@@]45C[C@@]35CC[C@]12C (relative stereo)
MIC [1]: > 40 µg/mL
MIC [2]: > 40 µg/mL
MIC [3]: > 40 µg/mL
MIC [4]: > 40 µg/mL

C/C(=C\CC[C@@H](C)[C@H]1C[C@@H](O)[C@@]2(C)[C@@H]3CC[C@H]4C(C)(C)C(=O)CC[C@@]45C[C@@]35CC[C@]12C)C(=O)O
Activity [7]: Active
Activity [8]: Active
Activity [9]: Active
Activity [10]: Active
growth inhibition (GI) [11]: 100%
MIC [1]: > 40 µg/mL
MIC [2]: > 40 µg/mL
MIC [3]: 40 µg/mL (≈ 85 µM)
MIC [4]: 5 µg/mL (≈ 10.6 µM)

CO[C@@H]1CC[C@]23C[C@]24CC[C@]2(C)[C@@H]([C@H](C)C[C@H](O)/C=C(\C)C(=O)O)CC[C@@]2(C)[C@@H]4CC[C@H]3C1(C)C
MIC [1]: > 40 µg/mL
MIC [2]: > 40 µg/mL
MIC [3]: > 40 µg/mL
MIC [4]: > 40 µg/mL

C/C(=C\CC[C@@H](C)[C@H]1[C@@H](O)[C@@H](O)[C@@]2(C)[C@@H]3CC[C@H]4C(C)(C)C(=O)CC[C@@]45C[C@@]35CC[C@]12C)C(=O)O
MIC [1]: > 40 µg/mL
MIC [2]: > 40 µg/mL
MIC [3]: > 40 µg/mL
MIC [4]: > 40 µg/mL

CC1=C[C@@H](C[C@@H](C)[C@H]2CC[C@@]3(C)[C@@H]4CC[C@H]5C(C)(C)[C@@H](O)CC[C@@]56C[C@@]46CC[C@]23C)OC1=O
MIC [1]: > 40 µg/mL
MIC [2]: > 40 µg/mL
MIC [3]: > 40 µg/mL
MIC [4]: > 40 µg/mL

C/C(=C\CC[C@@H](C)[C@H]1C[C@@H](O)[C@@]2(C)[C@@H]3CC[C@H]4C(C)(C)[C@H](O)CC[C@@]45C[C@@]35CC[C@]12C)C(=O)O
MIC [1]: > 40 µg/mL
MIC [2]: > 40 µg/mL
MIC [3]: > 40 µg/mL
MIC [4]: 10 µg/mL (≈ 21.2 µM)

C/C(=C\CC[C@@H](C)[C@H]1CC[C@@]2(C)[C@@H]3CC[C@H]4C(C)(C)C(=O)CC[C@@]45C[C@@]35CC[C@]12C)C(=O)O [MANGIFERONIC ACID]
MIC [1]: > 40 µg/mL
MIC [2]: > 40 µg/mL
MIC [3]: > 40 µg/mL
MIC [4]: > 40 µg/mL

CC1=CC(O)(C[C@@H](C)[C@H]2CC[C@@]3(C)C4=C(CC[C@]23C)[C@@]2(C)CCC(=O)C(C)(C)[C@@H]2CC4)OC1=O (some centres not stated)
MIC [1]: > 40 µg/mL
MIC [2]: > 40 µg/mL
MIC [3]: > 40 µg/mL
MIC [4]: > 40 µg/mL

O=C(N[C@H](CO)[C@H](O)c1ccc([N+](=O)[O-])cc1)C(Cl)Cl [CHLORAMPHENICOL]
MIC [1]: > 40 µg/mL
MIC [2]: > 40 µg/mL
MIC [3]: 20 µg/mL (≈ 61.9 µM)
MIC [4]: 5 µg/mL (≈ 15.5 µM)

C[C@H](CC[C@H](O)[C@](C)(O)CO)[C@H]1CC[C@@]2(C)[C@@H]3CC[C@H]4C(C)(C)C(=O)CC[C@@]45C[C@@]35CC[C@]12C (relative stereo)
MIC [1]: > 40 µg/mL
MIC [2]: > 40 µg/mL
MIC [3]: > 40 µg/mL
MIC [4]: > 40 µg/mL

CC1=C[C@@H](C[C@@H](C)[C@H]2C[C@@H](O)[C@@]3(C)[C@@H]4CC[C@H]5C(C)(C)[C@H](O)CC[C@@]56C[C@@]46CC[C@]23C)OC1=O
MIC [1]: > 40 µg/mL
MIC [2]: > 40 µg/mL
MIC [3]: > 40 µg/mL
MIC [4]: > 40 µg/mL

— ChEMBL document CHEMBL4414596, “Highly Oxygenated Triterpenoids and Rare Tetraterpenoids from Abies chensiensis and Their Antibacterial Activity” (2019)
